Experimental data published in ChEMBL document CHEMBL3885861, “Open TG-GATES”.

Species: Rattus norvegicus
Assay: Open TG-GATES - Regimen: Daily Repeat
Format: toxicity, organism-based, Sprague-Dawley
Parameters: regimen Daily Repeat, gender Male, age 6 weeks
Conditions: in vivo, po, route gavage; for APTT / Bas / Eos / Hb / Ht / Lym / MCH / MCHC / MCV / Mono / PT / Plat / RBC / Ret / WBC / Neu: tissue Blood; for KIDNEY_L / KIDNEY_R / KIDNEY_TOTAL: tissue Kidney; for LIVER: tissue Liver; for ALT / AST / BUN / CRE / Ca / DBIL / GLC / IP / K / LDH / Na / PL / RALB / TBIL / TC / TP / gamma-GTP / TG / ALP: tissue Plasma
[1] = 0 mg/kg, 72 h, dose level Control, time 3 day
[2] = 0 mg/kg, […], dose level Control, time 7 day
[3] = 0 mg/kg, […], dose level Control, time 14 day
[4] = 0 mg/kg, […], dose level Control, time 28 day
[5] = 100 mg/kg, 72 h, dose level Low, time 3 day
[6] = 100 mg/kg, […], dose level Low, time 7 day
[7] = 100 mg/kg, […], dose level Low, time 14 day
[8] = 100 mg/kg, […], dose level Low, time 28 day
[9] = 300 mg/kg, 72 h, dose level Middle, time 3 day

C[C@H](CS)C(=O)N1CCC[C@H]1C(=O)O [CAPTOPRIL]
TERMINAL_BW [1]: 245.5 g | APTT [1]: 16.1 s | Bas [1]: 0% | Eos [1]: 1.2% | Hb [1]: 13.4 g/dL | Ht [1]: 41% | Lym [1]: 82.8% | MCH [1]: 21.5 pg | MCHC [1]: 32.7% | MCV [1]: 65.6 fL | Mono [1]: 5.8% | PT [1]: 11.3 s | Plat [1]: 117.3 x10_4/uL | RBC [1]: 625 x10_4/ul | Ret [1]: 7.6% | WBC [1]: 119.1 x10_2/uL | KIDNEY_L [1]: 1.1 g | KIDNEY_R [1]: 1.1 g | KIDNEY_TOTAL [1]: 2.2 g | LIVER [1]: 11.9 g | ALT [1]: 40.4 IU/L | AST [1]: 64.8 IU/L | BUN [1]: 17.6 mg/dL | CRE [1]: 0.5 mg/dL | Ca [1]: 11.3 mg/dL | DBIL [1]: 0.016 mg/dL | GLC [1]: 197.6 mg/dL | IP [1]: 8.9 mg/dL | K [1]: 4.8 meq/L | LDH [1]: 86.2 IU/L | Na [1]: 139 meq/L | PL [1]: 142.4 mg/dL | RALB [1]: 3.8 g/dL | TBIL [1]: 0.4 mg/dL | TC [1]: 70.6 mg/dL | TP [1]: 5.7 g/dL | gamma-GTP [1]: 1.2 IU/L | TERMINAL_BW [2]: 274 g | TERMINAL_BW [3]: 333.4 g | TERMINAL_BW [4]: 402.1 g | APTT [2]: 16.6 s | Bas [2]: 0% | Eos [2]: 0.8% | Hb [2]: 13.8 g/dL | Ht [2]: 41.7% | Lym [2]: 83% | MCH [2]: 21.1 pg | MCHC [2]: 33.1% | MCV [2]: 63.9 fL | Mono [2]: 4% | Neu [2]: 12.4% | Plat [2]: 113.7 x10_4/uL | RBC [2]: 653.4 x10_4/ul | Ret [2]: 6.1% | WBC [2]: 144.9 x10_2/uL | APTT [3]: 16.9 s | Bas [3]: 0% | Eos [3]: 1% | Hb [3]: 14.3 g/dL | Ht [3]: 43.1% | Lym [3]: 80.8% | MCH [3]: 20.5 pg | MCHC [3]: 33.1% | MCV [3]: 62.1 fL | Mono [3]: 6% | Neu [3]: 12.4% | PT [3]: 11.4 s | Plat [3]: 112.4 x10_4/uL | RBC [3]: 694.8 x10_4/ul | Ret [3]: 4.1% | WBC [3]: 122.3 x10_2/uL | APTT [4]: 16.7 s | Bas [4]: 0% | Eos [4]: 1% | Hb [4]: 14.5 g/dL | Ht [4]: 43.7% | Lym [4]: 86.8% | MCH [4]: 19 pg | MCHC [4]: 33.1% | MCV [4]: 57.4 fL | Mono [4]: 4.4% | Neu [4]: 7.8% | PT [4]: 11.9 s | RBC [4]: 761.8 x10_4/ul | Ret [4]: 2.5% | WBC [4]: 154.2 x10_2/uL | KIDNEY_L [2]: 1.1 g | KIDNEY_R [2]: 1.1 g | KIDNEY_TOTAL [2]: 2.3 g | KIDNEY_L [3]: 1.3 g | KIDNEY_R [3]: 1.3 g | KIDNEY_TOTAL [3]: 2.6 g | KIDNEY_L [4]: 1.4 g | KIDNEY_R [4]: 1.4 g | KIDNEY_TOTAL [4]: 2.9 g | LIVER [2]: 13 g | LIVER [3]: 15.7 g | LIVER [4]: 17 g | ALT [2]: 37.8 IU/L | AST [2]: 62 IU/L | BUN [2]: 18.8 mg/dL | CRE [2]: 0.6 mg/dL | DBIL [2]: 0.002 mg/dL | GLC [2]: 198 mg/dL | IP [2]: 8.1 mg/dL | K [2]: 4.9 meq/L | LDH [2]: 72.4 IU/L | Na [2]: 141.4 meq/L | PL [2]: 132.2 mg/dL | RALB [2]: 3.8 g/dL | TBIL [2]: 0.3 mg/dL | TC [2]: 65.2 mg/dL | TG [2]: 79.8 mg/dL | TP [2]: 5.8 g/dL | gamma-GTP [2]: 1.2 IU/L | ALP [3]: 916.4 IU/L | ALT [3]: 32.6 IU/L | AST [3]: 60.2 IU/L | BUN [3]: 17.8 mg/dL | CRE [3]: 0.5 mg/dL | DBIL [3]: 0 mg/dL | GLC [3]: 202.6 mg/dL | IP [3]: 8.1 mg/dL | K [3]: 4.5 meq/L | LDH [3]: 76.8 IU/L | Na [3]: 139.4 meq/L | PL [3]: 169.6 mg/dL | RALB [3]: 3.9 g/dL | TBIL [3]: 0.3 mg/dL | TC [3]: 85.4 mg/dL | TG [3]: 152 mg/dL | TP [3]: 6 g/dL | gamma-GTP [3]: 1.2 IU/L | ALP [4]: 633 IU/L | ALT [4]: 31.4 IU/L | AST [4]: 58 IU/L | BUN [4]: 20.4 mg/dL | CRE [4]: 0.6 mg/dL | DBIL [4]: 0.026 mg/dL | GLC [4]: 213.6 mg/dL | IP [4]: 7.7 mg/dL | K [4]: 4.3 meq/L | LDH [4]: 110.2 IU/L | Na [4]: 139.8 meq/L | PL [4]: 150 mg/dL | RALB [4]: 3.9 g/dL | TBIL [4]: 0.3 mg/dL | TC [4]: 69.2 mg/dL | TG [4]: 142.4 mg/dL | TP [4]: 6.1 g/dL | gamma-GTP [4]: 0.6 IU/L | TERMINAL_BW [5]: 236.5 g | APTT [5]: 16.5 s | Bas [5]: 0% | Eos [5]: 1% | Hb [5]: 13.6 g/dL | Ht [5]: 41.2% | Lym [5]: 79.6% | MCH [5]: 21.6 pg | MCHC [5]: 33.1% | MCV [5]: 65.3 fL | Mono [5]: 8.4% | Neu [5]: 11.4% | PT [5]: 11.2 s | Plat [5]: 120 x10_4/uL | RBC [5]: 632.2 x10_4/ul | Ret [5]: 7.1% | WBC [5]: 121.4 x10_2/uL | KIDNEY_L [5]: 0.9 g | KIDNEY_R [5]: 1 g | KIDNEY_TOTAL [5]: 1.9 g | LIVER [5]: 11.7 g | ALP [5]: 857.2 IU/L | ALT [5]: 40.4 IU/L | AST [5]: 67 IU/L | BUN [5]: 21.2 mg/dL | CRE [5]: 0.5 mg/dL | Ca [5]: 11.4 mg/dL | DBIL [5]: 0.01 mg/dL | GLC [5]: 193.6 mg/dL | IP [5]: 8.4 mg/dL | K [5]: 5 meq/L | LDH [5]: 116.8 IU/L | Na [5]: 138.4 meq/L | PL [5]: 150.6 mg/dL | RALB [5]: 4.2 g/dL | TBIL [5]: 0.3 mg/dL | TC [5]: 81 mg/dL | TP [5]: 6.1 g/dL | gamma-GTP [5]: 1.4 IU/L | TERMINAL_BW [6]: 261.5 g | TERMINAL_BW [7]: 305.1 g | TERMINAL_BW [8]: 346.2 g | APTT [6]: 15.6 s | Bas [6]: 0% | Eos [6]: 0.6% | Hb [6]: 13.8 g/dL | Ht [6]: 41.4% | Lym [6]: 84% | MCH [6]: 20.7 pg | MCHC [6]: 33.2% | MCV [6]: 62.4 fL | Mono [6]: 4.8% | Plat [6]: 134.3 x10_4/uL | RBC [6]: 664.8 x10_4/ul | Ret [6]: 4.9% | WBC [6]: 139.3 x10_2/uL | APTT [7]: 16.9 s | Bas [7]: 0% | Eos [7]: 1.2% | Hb [7]: 14.2 g/dL | Ht [7]: 42.9% | Lym [7]: 77% | MCH [7]: 19.9 pg | MCHC [7]: 33.2% | MCV [7]: 60 fL | Mono [7]: 7.6% | Neu [7]: 14.4% | PT [7]: 11.6 s | RBC [7]: 717 x10_4/ul | Ret [7]: 3.5% | WBC [7]: 93.7 x10_2/uL | APTT [8]: 15.9 s | Bas [8]: 0% | Eos [8]: 1.2% | Hb [8]: 14.8 g/dL | Ht [8]: 44.8% | Lym [8]: 83.4% | MCH [8]: 18.8 pg | MCHC [8]: 33.1% | MCV [8]: 56.6 fL | Mono [8]: 5.4% | PT [8]: 11.7 s | RBC [8]: 790.8 x10_4/ul | Ret [8]: 2.4% | WBC [8]: 131.2 x10_2/uL | KIDNEY_L [6]: 1.1 g | KIDNEY_R [6]: 1.2 g | KIDNEY_TOTAL [6]: 2.3 g | KIDNEY_L [7]: 1.2 g | KIDNEY_R [7]: 1.3 g | KIDNEY_TOTAL [7]: 2.5 g | KIDNEY_L [8]: 1.4 g | KIDNEY_R [8]: 1.4 g | KIDNEY_TOTAL [8]: 2.8 g | LIVER [6]: 12.3 g | LIVER [7]: 13.8 g | LIVER [8]: 13.8 g | ALT [6]: 40.8 IU/L | AST [6]: 67.6 IU/L | BUN [6]: 20 mg/dL | CRE [6]: 0.5 mg/dL | DBIL [6]: 0.002 mg/dL | GLC [6]: 203.8 mg/dL | IP [6]: 8.2 mg/dL | K [6]: 5.1 meq/L | LDH [6]: 77 IU/L | Na [6]: 139.2 meq/L | PL [6]: 144.2 mg/dL | RALB [6]: 4 g/dL | TBIL [6]: 0.3 mg/dL | TC [6]: 74.6 mg/dL | TG [6]: 83.6 mg/dL | TP [6]: 6 g/dL | gamma-GTP [6]: 1.8 IU/L | ALP [7]: 862.6 IU/L | ALT [7]: 32.8 IU/L | AST [7]: 61.2 IU/L | BUN [7]: 22.2 mg/dL | CRE [7]: 0.5 mg/dL | DBIL [7]: 0 mg/dL | GLC [7]: 197.6 mg/dL | IP [7]: 7.8 mg/dL | K [7]: 4.8 meq/L | LDH [7]: 85 IU/L | Na [7]: 138.2 meq/L | PL [7]: 151.6 mg/dL | RALB [7]: 4.1 g/dL | TBIL [7]: 0.3 mg/dL | TC [7]: 72.6 mg/dL | TP [7]: 6.1 g/dL | gamma-GTP [7]: 0.8 IU/L | ALP [8]: 701.4 IU/L | ALT [8]: 36.6 IU/L | AST [8]: 65.8 IU/L | BUN [8]: 22.6 mg/dL | CRE [8]: 0.5 mg/dL | DBIL [8]: 0.02 mg/dL | GLC [8]: 194 mg/dL | IP [8]: 7.5 mg/dL | K [8]: 4.9 meq/L | LDH [8]: 116.8 IU/L | Na [8]: 137.2 meq/L | PL [8]: 148.4 mg/dL | RALB [8]: 4.1 g/dL | TBIL [8]: 0.3 mg/dL | TC [8]: 72.8 mg/dL | TG [8]: 114.6 mg/dL | TP [8]: 6.2 g/dL | gamma-GTP [8]: 0.8 IU/L | TERMINAL_BW [9]: 239.8 g | APTT [9]: 16.2 s | Bas [9]: 0%
